US8003083B2, “Benzylidene malonamide and salt thereof, ultraviolet ray absorbent, and agent for external application to the skin” (Shiseido Company, Ltd., priority 2006, dated 2011)
Values belong to the compound of their own block, whether it stands above or below them.

Key:
[1] = External appearance and low temperature storage of lotion and cream samples; format: physicochemical
Experimental: (§1) (a) lotion and (b) cream were prepared according to the following recipes. For the ultraviolet absorbent, benzilidene malonamide (bis-N,N′-[2-(2-hydroxyethoxy)ethyl]-4-methoxybenzilidene malonamide) of the present invention and, as a Comparison example, a water soluble ultraviolet absorbent sodium 2-hydroxy-4-methoxy-5-sulfoquisonium benzophenone were used.
(§2) The water phase and the alcohol phase were separately prepared and then mixed together.
(§3) Propylene glycol and the ultraviolet absorbent were dissolved in ion-exchanged water and the temperature was raised to 70° C. and maintained. The other ingredients were mixed, heated and melted, and the temperature was maintained at 70° C. (oil phase). The oil phase was added to the water phase and pre-emulsification was conducted; after a homomixer was used to emulsify the mixture homogeneously, the temperature was cooled down to 30° C. while thorough stirring was maintained.

[2] = 405 nm visible light absorbance measurement; format: physicochemical; conditions: water, optical path length 1 cm
Experimental: For a Comparative example, sodium 2-hydroxy-4-methoxy-5-sulfoquisonium benzophenone, a conventional water soluble ultraviolet absorbent, was measured in the same manner.

[3] = tested on: degree of sunburn after exposure to direct sunlight; assay: Ultraviolet prevention effect, actual use test on a beach in summer; format: in vivo, human
Experimental: An actual use test was conducted on a beach in summer. The same amount of sample was applied on the left and right halves of panelists' backs. The degree of sunburn after exposure to direct sunlight was evaluated based on the following criteria. The test was conducted with a group of 10 panelists.
Very effective: No or very little sunburn symptoms were observed.
Effective: A mild degree of sunburn symptoms were observed.
Not effective: A strong degree of sunburn symptoms were observed.
⊚: 80% or more of the subjects report “very effective” or “effective.”
◯: 50% or more and less than 80% of the subjects report “very effective” or “effective.”
∇: 30% or more and less than 50% of the subjects report “very effective” or “effective.”
X: Less than 30% of the subjects report “very effective” or “effective.”
as §1, §2, §3

Solubility in water = format: physicochemical
Experimental: Solubility in water was measured for the benzilidene malonamide of the present invention. For a Comparative example, sodium 2-hydroxy-4-methoxy-5-sulfoquisonium benzophenone was measured in the same manner.

[4] = tested on: flexor forearm skin of healthy male and female volunteers; assay: Skin irritability test, 24-hour closed patch test; format: in vivo, human; conditions: ultraviolet absorbent 10 wt %, 20 volunteers
Experimental: This test was conducted by using the same sample as in Test example 4 (blend ratio of the ultraviolet absorbent was 10 wt %).
A Finn chamber was used to conduct the 24-hour closed patch test on the flexor forearm of healthy male and female volunteers; a group of 20 volunteers were used and the following evaluation criteria were used.
The average score was calculated and the evaluation was done based on the following criteria.
⊚: The average score is 0.
◯: The average score is more than 0 and less than 1.
Δ: The average score is 1 or more and less than 2.
X: The average score is 2 or more.

[5] = Photostability test, sunlight exposure; format: physicochemical; conditions: 80 MJ/m^2
Experimental: A solution of the ultraviolet absorbent of the present invention was exposed to sunlight for two weeks (sunlight exposure level 80 MJ/m^2) and then the residual ratio and changes in the appearance were investigated and the ultraviolet absorption spectrum was measured (solvent: water, concentration 10 ppm, optical path length 1 cm) by using a spectrophotometer; the ultraviolet absorption spectrum was integrated over a range of 290-400 nm to obtain the area value, which was compared with the value before the sunlight exposure.
Changes in the residual ratio and the area value of the ultraviolet absorption spectrum were evaluated based on the following criteria.
Δ: 70% or more and less than 90% of the value before the sunlight exposure.
X: Less than 70% of the value before the sunlight exposure.

[6] = Stability test for use in combination with an inorganic powder ultraviolet shielding agent; format: physicochemical; conditions: sunscreen cream with inorganic powders, ultraviolet absorbent 10.0 wt %, stored at 50° C. for two months, visual
Experimental: Sunscreen cream was prepared according to the following recipe; it was stored at 50° C. for two months and visually observed for discoloration to investigate the stability when used in combination with an inorganic powder ultraviolet shielding agent.

[7] = Ultraviolet absorption spectrum measurement; format: physicochemical; conditions: solvent water, concentration 10 ppm, optical path length 1 cm, FIG. 1
Experimental: An ultraviolet absorption spectrum of the benzilidene malonamide obtained in Example 1 was measured (solvent: water, concentration 10 ppm, optical path length 1 cm) by using a spectrophotometer (V-560 from Jasco Co. Ltd.).

SMILES: COc1cc(O)c(C(=O)c2ccccc2)cc1S(=O)(=O)[O-].[Na+] [sodium 2-hydroxy-4-methoxy-5-sulfoxonium benzophenone, reference compound]
Precipitation during low temperature storage ([1]; (a) Lotion, blend ratio 5): **Crystals precipitated during low temperature storage.
External appearance ([1]; (b) Cream, blend ratio 1): Yellow
External appearance ([1]; (b) Cream, blend ratio 5): Yellow**
Precipitation during low temperature storage ([1]; (b) Cream, blend ratio 5): **Crystals precipitated during low temperature storage.
Absorbance ([2]; concentration 0.1 wt %): 0.06
Absorbance ([2]; concentration 1 wt %): 0.32
Absorbance ([2]; concentration 6 wt %): 1.99

Solubility (room temperature) (Solubility in water): 30 or more wt %
External appearance ([1]; (b) Cream, blend ratio 1): White
External appearance ([1]; (b) Cream, blend ratio 5): White
External appearance ([1]; (b) Cream, blend ratio 10): White
Discoloration [6]: None
Absorbance ([2]; concentration 10 wt %): 0
SMILES: COc1ccc(C=C(C(=O)NCCOCCO)C(=O)NCCOCCO)cc1 [Benzilidene malonamide of formula (1), bis-N,N′-[2-(2-hydroxyethoxy)ethyl]-4-methoxybenzilidene malonamide]
Ultraviolet prevention effect ([3]; (a) Lotion, blend ratio 1, 10 panelists): ⊚ (80% or more of the subjects report “very effective” or “effective.”)
Ultraviolet prevention effect ([3]; (a) Lotion, blend ratio 5, 10 panelists): ⊚ (80% or more of the subjects report “very effective” or “effective.”)
Ultraviolet prevention effect ([3]; (a) Lotion, blend ratio 10, 10 panelists): ⊚ (80% or more of the subjects report “very effective” or “effective.”)
Ultraviolet prevention effect ([3]; (b) Cream, blend ratio 1, 10 panelists): ⊚ (80% or more of the subjects report “very effective” or “effective.”)
Ultraviolet prevention effect ([3]; (b) Cream, blend ratio 5, 10 panelists): ⊚ (80% or more of the subjects report “very effective” or “effective.”)
Ultraviolet prevention effect ([3]; (b) Cream, blend ratio 10, 10 panelists): ⊚ (80% or more of the subjects report “very effective” or “effective.”)
Skin irritability patch test evaluation (average score) ([4]; Cream): ⊚ (The average score is 0.)
Skin irritability patch test evaluation (average score) ([4]; Lotion): ⊚ (The average score is 0.)
Precipitation during low temperature storage ([1]; external preparations of Tables 3 and 4 (lotion and cream)): no precipitation of the ultraviolet absorbent was observed at all
Changes in the area value of the ultraviolet absorption spectrum ([5]; 290-400 nm integrated, after sunlight for two weeks, water, 10 ppm, 1 cm): ⊚ (95% or more of the value before the sunlight exposure.)
Residual ratio ([5]; solution exposed to sunlight for two weeks): ⊚ (95% or more of the value before the sunlight exposure.)
Ultraviolet absorption spectrum (absorption capacity) [7]: superior absorption capacity over a wide ultraviolet wavelength region
